Data: patent US11396497B2, “Proteasome inhibitors” (New Mexico Tech University Research Park Corporation, priority 2018, dated 2022)
Read-outs that look alike come from different tables or passages of the source.

Tests used:
MDA-MB-231 cells [1] = tested on: MDA-MB-231 cells
Experimental: (§4) The cells were incubated at 37° C. in a humidified atmosphere with 5% CO2.
(§5) 100 μL of cells were added to each well of a 96 well microtiter plate at a concentration of 4×10^4 cells/mL and incubated overnight to allow proper adhesion. (RPMI 8226 cells were plated at 4×10^5 cells/mL). The cells were treated with the panel of test compounds at a series of concentrations, along with vehicle control DMSO and untreated cells as controls. After 48 h incubation, 20 μL of MTT reagent (3-(4,5-dimethylthiazol-2-yl)-2,5-diphenyltetrazolium bromide) in PBS (5 mg/mL) was added to each well of the plates. The plate was incubated for 2 h at 37° C. For adherent cell lines, the media was removed from each well of the plate and the resulting formazan crystals dissolved in 100 μL of DMSO. For RPMI 8226 cells, 200 ul of DMF/SDS mix (50% DMF. 10% w/v SDS pH<4) was used to solubilize the formazan crystals. Optical density (OD) at 490 nm was measured using a microplate reader. Cells treated with 1 μM phenyl arsine oxide (PAO) served as a positive cell-killing control. Technical replicates of these assays were performed in biological quadruplicate, and the three best values were used for analysis in order to eliminate outliers. Data presented are the average IC50 value calculated from at least 3 technical replicates with the corresponding standard deviation.

MCF7 cells [2] = tested on: MCF7 cells
[3] = molecular target: T1, chymotrypsin-like activity of the 26S proteasome (Homo sapiens, UniProt P28074); assay: Proteasome assay, chymotrypsin-like (ChT-L) activity, Suc-LLVY-AMC, Jurkat cell lysate; type: biochemical; settings: ± S.D., read-out: Proteasome Inhibition ChT-like IC50
T1 construct: endogenous in cells; host or cells: Jurkat (ATCC TIB-152, E6-1 clone) cell lysate
T1 sequence (P28074 60-263): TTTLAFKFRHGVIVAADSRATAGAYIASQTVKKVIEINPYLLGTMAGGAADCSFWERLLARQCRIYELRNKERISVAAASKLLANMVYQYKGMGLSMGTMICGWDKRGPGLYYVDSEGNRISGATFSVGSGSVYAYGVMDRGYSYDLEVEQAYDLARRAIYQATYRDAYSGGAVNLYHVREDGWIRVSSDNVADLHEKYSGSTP
Experimental: (§1) The lysate was stored at −80° C. until the sample was used for the proteasome assay.
(§2) The compounds were diluted with lysis buffer; 10 μL of the compound-containing solution was added to the test wells at ten times the final concentration. […] The results are reported as the average of at least 3 technical replicates of IC50 values for proteasome inhibition.

RPMI 8226 cells [4] = tested on: RPMI 8226 cells
Experimental: as §4, §5

[5] = tested on: cancer cells (MCF7, MDA-MB-231, RPMI 8226)
Experimental: as §5

[6] = molecular target: T2, trypsin-like activity of the 26S proteasome (Homo sapiens, UniProt Q99436); assay: Proteasome assay, trypsin-like (T-L) activity, SUC-RLR-AMC, Jurkat cell lysate; type: biochemical; settings: ± S.D., read-out: Proteasome Inhibition T-L-like IC50
T2 construct: endogenous in cells; host or cells: Jurkat (ATCC TIB-152, E6-1 clone) cell lysate
T2 sequence (Q99436 44-277): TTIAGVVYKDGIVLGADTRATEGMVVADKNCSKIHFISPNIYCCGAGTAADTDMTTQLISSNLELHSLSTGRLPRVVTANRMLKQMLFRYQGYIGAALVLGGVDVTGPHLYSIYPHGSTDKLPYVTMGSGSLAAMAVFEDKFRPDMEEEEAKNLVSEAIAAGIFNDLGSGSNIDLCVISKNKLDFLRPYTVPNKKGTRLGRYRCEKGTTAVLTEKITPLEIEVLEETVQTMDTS
Experimental: as §1, §2

MCF7 cells [7] = assay: MTT assay cytotoxicity MCF7; settings: Homo sapiens, MCF7, 48 h, read-out: Cytotoxicity MCF7 IC50
[8] = molecular target: T3, yeast proteasome yβ5 subunit (Saccharomyces cerevisiae, UniProt P23724+P30656); assay: Subunit selectivity, purified yeast proteasome yβ5; type: biochemical
T3 construct: measured using 8 μg/mL of purified yCP or iCP
Experimental: as §2
(§3) Values and standard deviations were calculated from an assay performed in biological triplicate.

RPMI 8226 cells [9] = assay: MTT assay cytotoxicity RPMI 8226; settings: Homo sapiens, RPMI-8226, 48 h, read-out: Cytotoxicity RPMI 8226 IC50
Experimental: as §4, §5

[10] = molecular target: T4, yeast proteasome yβ2 subunit (Saccharomyces cerevisiae, UniProt P25043+P25451); assay: Subunit selectivity, purified yeast proteasome yβ2; type: biochemical
T4 construct: measured using 8 μg/mL of purified yCP or iCP
Experimental: as §2, §3

[11] = molecular target: T5, yeast proteasome yβ1 subunit (Saccharomyces cerevisiae, UniProt P25043+P38624); assay: Subunit selectivity, purified yeast proteasome yβ1; type: biochemical
T5 construct: measured using 8 μg/mL of purified yCP or iCP
Experimental: as §2, §3

MDA-MB-231 cells [12] = assay: MTT assay cytotoxicity MDA-MB-231; settings: Homo sapiens, MDA-MB-231, 48 h, read-out: Cytotoxicity MDA-MB-231 IC50
Experimental: as §4, §5

Jurkat cells [13] = assay: Cell cycle assay (flow cytometry); type: cell-based, human
Experimental: Vybrant® DyeCycle™ Orange Stain was used for the cell cycle assay. The amount of fluorescence of DNA was used as a relative measure of a cell's stage in the cell cycle. 500,000 Jurkat cells were added to wells on a 24 well microtiter plate in 1 mL of supplemented RPMI media. The cells were then treated with Compound 1 (TABLE 2). Using the cells treated for 12 and 24 hours, stained DNA fluorescence was measured via flow cytometry. The cells were taken from each well, pelleted briefly, aspirated, resuspended in 300 μL of 2 μL/mL Vybrant® DyeCycle™ Orange Stain, incubated at 37° C. for 15 minutes, and analyzed by flow cytometry. Selecting whole cells based on forward and side scatter, stained DNA fluorescence was excited at 488 nm and measured at an emission wavelength of 585 nm, using amount of fluorescence as a means of distinguishing between populations of cells. Populations were identified as G1 for the peak associated with the lowest amount of fluorescence, S phase for increased fluorescence appearing as a shoulder off of the G1 peak, and G2/M for approximately 2 times the fluorescence as the G1 peak. Measurements were taken in biological triplicate and confirmed in technical triplicate.

[14] = tested on: ubiquitinated proteins in MCF7 cells; assay: Western blot of ubiquitinated proteins; type: cell-based, human
Experimental: The cells were incubated for 9.5 hrs at 37° C. and 5% CO2. After washing with PBS twice, cells were scraped, pelleted and lysed with CytoBuster™ Protein Extraction Reagent \ containing 10 μM compound 8, 10 μM Na3VO4, 0.017 mg/mL Aprotinin, 1 mM PMSF, and 1% Protease Inhibitor Cocktail. Thereafter 30 μg of protein in sample buffer (50 mM Tris-HCl, 2% SDS, 10% Glycerol, 1% β-mercaptoethanol, 12.5 mM EDTA, 0.02% Bromophenol Blue, pH 6.8) that had been boiled at 90° C. for 5 min, was electrophoresed using 6/8% SDS-PAGE, and the protein transferred to a […] PVDF membrane using a BioRad Trans-Blot® SD at 15 V for 17 minutes. The membrane was blocked with 1× casein buffer (Diluted 1:10 in water from casein blocking buffer 10×), and probed with either the polyclonal rabbit anti β-Actin (1:500) or the polyclonal rabbit anti-ubiquitin antibody (1:300), and stained with goat anti-rabbit IgG (H+L) HRP conjugate (1:3000) secondary antibodies. Antibody-recognized bands were visualized by a standard horseradish peroxidase chemiluminescent assay with an ECL kit.

Jurkat cells [15] = assay: Apoptosis assay (Annexin V-FITC, flow cytometry); type: cell-based, human
Experimental: Apoptosis assay: 1 mL of Jurkat cells, at a density of 500,000 cells per milliliter, was added to 12 wells of a 24 well microtiter plate. Cells were treated immediately using a serial dilution of the synthesized proteasome inhibitors, the benzyl ester of Cystargolide B and the belactosin-cystargolide hybrid molecule. 10 μM Paclitaxel and 0.2 μg/mL Doxorubicin hydrochloride were used as positive apoptosis controls and non-treated cells were used as a negative control. The cells were then incubated for 24 h at 37° C. and 5% CO2. The following day, Annexin V-FITC conjugate was used to assay for the expression of phosphatidyl serine on the […] of the cellular membrane. The cells were briefly pelleted, aspirated, and resuspended in 300 μL of a reaction mixture containing 0.2 μL/mL of the Annexin V FITC solution, 2 mM CaCl2 to enable binding, and 2 μg/mL propidium iodide as an indicator of cell permeability. Each sample was incubated at 37° C. for 20 minutes, and then analyzed by flow cytometry. Single, whole cells were selected based on the forward and the side-scatter. With an excitation of 488 nm Annexin V-FITC binding was identified using FL1 533 nm emission. Propidium iodide staining was selected based on FL2 585 nm emission. […] Measurements were taken in biological triplicate for each sample, and the results were confirmed in technical triplicate.

[16] = molecular target: T6, immunoproteasome iβ5 subunit (Homo sapiens, UniProt P20618+P28062); assay: Subunit selectivity, purified immunoproteasome iβ5; type: biochemical
T6 construct: purchased Enzo Life Sciences
Experimental: as §2, §3

[17] = 8 μg/mL purified yCP, ± SD, read-out: yβ2 IC50
[18] = 8 μg/mL purified yCP, ± SD, read-out: yβ1 IC50

## CC[C@H](C)[C@@H]1C(=O)O[C@H]1C(=O)N[C@H](C(=O)N[C@@H](CC(C)C)C(=O)OCc1ccccc1)C(C)C [Compound 10i, Benzyl((2R,3S)-3-((S)-sec-butyl)-4-oxooxetane-2-carbonyl)-L-valyl-L-leucinate]
MDA-MB-231 cells [1]
  IC50: 287 ± 136 nM
MCF7 cells [2]
  IC50: 351 ± 31 nM
[3]; Table 3, P2/P3 analogues
  IC50: 7.8 ± 1.6 nM
RPMI 8226 cells [4]
  IC50: 156 ± 96 nM
[5]
  cytotoxicity IC50 for all three cell lines tested (in words): midrange nanomolar
[6]; Table 3, P2/P3 analogues
  IC50: 1350 ± 172 nM

## CC[C@H](C)[C@@H]1C(=O)O[C@H]1C(=O)N[C@H](C(=O)N[C@H](C(=O)NCc1ccccc1)C(C)C)C(C)C [Compound 11e, (2R,3S)—N—((S)-1-(((S)-1-(benzylamino)-3-methyl-1-oxobutan-2-yl)amino)-3-methyl-1-oxobutan-2-yl)-3-((S)-sec-butyl)-4-oxooxetane-2-carboxamide]
MCF7 cells [7]
  IC50: 814 ± 121 nM
[3]; Table 4, P4 analogues
  IC50: 4.5 ± 2.9 nM
[8]
  IC50: 5.4 ± 0.5 nM
RPMI 8226 cells [9]
  IC50: 387 ± 177 nM
[10]
  IC50: 2920 ± 210 nM
[11]
  IC50: 1380 ± 106 nM
MDA-MB-231 cells [12]
  IC50: 742 ± 212 nM

## CC(C)[C@H](NC(=O)[C@@H]1OC(=O)[C@H]1C(C)C)C(=O)N[C@H](C(=O)OCc1ccccc1)C(C)C [Compound 1]
Jurkat cells [13]
  cell cycle arrest: cell cycle arrest in the G2/M phase
[14]
  accumulation of ubiquitinated proteins: accumulation of ubiquitinated proteins
MCF7 cells [7]
  IC50: 8090 ± 4270 nM
[3]; Table 2, P1 analogues
  IC50: 8.9 ± 6.2 nM
Jurkat cells [15]
  induction of apoptosis: induction of apoptosis
[8]; 8 μg/mL purified yCP, ± SD, read-out: yβ5 IC50
  IC50: 37.2 ± 4.5 nM
RPMI 8226 cells [9]
  IC50: 1310 ± 745 nM
[16]
  IC50: 44.7 ± 12.8 nM
[10]; [17]
  IC50: 14600 ± 910 nM
[11]; [18]
  IC50: 4180 ± 438 nM
MDA-MB-231 cells [12]
  IC50: 2790 ± 464 nM
[6]; Table 2, P1 analogues
  IC50: 1950 ± 901 nM

## CC(C)C1C(=O)OC1C(=O)N[C@H](C(=O)N[C@H](C(=O)O)C(C)C)C(C)C (stereo partly shown) [CysB, Cystargolide B, reference compound]
[16]; 8 μg/mL purified iCP, ± SD, read-out: iβ5 IC50
  IC50: 681 ± 177 nM
[10]; [17]
  IC50: 61600 ± 4840 nM
[11]; [18]
  IC50: 10200 ± 780 nM
